Test results published in patent publication US6469146B1, “Radiopharmaceutical products suitable for the selective labeling of lymphocytes, and their preparation” (Cis Bio International, priority 2000, dated 2002).

system: human blood; experiment: Labeling of blood cells: yield of cell labeling in whole blood; type: cell-based; conditions: 2 mCi (74 MBq) in 3 mL fresh human blood, 10 minutes, after washings
Protocol: (§1) The radiopharmaceuticals of table I (2 mCi; 74 MBq) are incubated in 3 mL of a fresh sample of human blood for 10 minutes under slow shaking. The blood composition depends upon each sample taken from healthy volunteers (average composition: 1.6±0.3.10^10 Red Globules (RG) and 2.2±0.3.10^7 White Globules (WG) with 1.2±0.3.10^7 Polymorphs (57±9%) and 0.7±0.3.10^7 Lymphocytes (35±4%)]. Non-bound radioactivity is removed by successive washings (2×10 mL of RPMI culture medium 1640) of 10 minutes at 600 g. The yield of cell labeling is determined in a CAPINTEC CRC 120 activimeter. Cell viability is controlled by the Trypan blue exclusion test.
(§2) The results obtained, namely the labeling yield (Yield) and the percentages of activity in the separated fractions are given in tables 3 to 5.

| Compound | Yield (±3%) of cell labeling |
| --- | --- |
| CCOc1ccc(C(=S)S[S][99Tc]([S]SC(=S)c2ccc(OCC)cc2)[S]C(=S)c2ccc(OCC)cc2)cc1 [Example 14, [^99mTc(4-EtOPhCS3)2(4-EtOPhCS2)]] | 97% |
| COc1cccc(C(=S)S[S][99Tc]([S]SC(=S)c2cccc(OC)c2)[S]C(=S)c2cccc(OC)c2)c1 [Example 15, [^99mTc(3-MeOPhCS3)2(3-MeOPhCS2)]] | 99% |
| COc1cccc(C(=S)S[S][99Tc]([S]SC(=S)c2cccc(OC)c2)[S]C(=S)c2cccc(OC)c2)c1 [Example 16, [^99mTc(3-MeOPhCS3)2(3-MeOPhCS2)]] | 98% |
| Oc1ccc(C(=S)S[S][99Tc]([S]SC(=S)c2ccc(O)cc2)[S]C(=S)c2ccc(O)cc2)cc1 [Example 17, [^99mTc(4-OHPhCS3)2(4-OHPhCS2)]] | 93% |
| Oc1ccc(C(=S)S[S][99Tc]([S]SC(=S)c2ccc(O)cc2)[S]C(=S)c2ccc(O)cc2)cc1 [Example 18, [^99mTc(4-OHPhCS3)2(4-OHPhCS2)]] | 93% |
| Fc1ccc(C(=S)S[S][99Tc]([S]SC(=S)c2ccc(F)cc2)[S]C(=S)c2ccc(F)cc2)cc1 [Example 19, [^99mTc(4-FPhCS3)2 (4-FPhCS2)]] | 99% |
| Fc1ccc(C(=S)S[S][99Tc]([S]SC(=S)c2ccc(F)cc2)[S]C(=S)c2ccc(F)cc2)cc1 [Example 20, [^99mTc(4-FPhCS3)2 (4-FPhCS2)]] | 91% |
| Cc1cc(C)c(C(=S)S[S][99Tc]([S]SC(=S)c2cc(C)c(C)cc2C)[S]C(=S)c2cc(C)c(C)cc2C)cc1C [Example 21, [^99mTc(2,4,5-Me3PhCS3)2(2,4,5-Me3PhCS2)]] | 90% |
| Cc1cc(C)c(C(=S)S[S][99Tc]([S]SC(=S)c2cc(C)c(C)cc2C)[S]C(=S)c2cc(C)c(C)cc2C)cc1C [Example 22, [^99mTc(2,4,5-Me3PhCS3)2(2,4,5-Me3PhCS2)]] | 95% |
| S=C(S[S][99Tc]([S]SC(=S)c1cccc2ccccc12)[S]C(=S)c1cccc2ccccc12)c1cccc2ccccc12 [Example 23, [^99mTc(1-naphCS3)2(1-naphCS2)]] | 71% |

system: whole blood; experiment: Cell separation on whole blood (Polymorphprep gradient), activity in separated fractions; type: cell-based, human; parameters: tested at 2 mCi (74 MBq) in 3 mL blood; conditions: fraction: Polymorphprep gradient
Protocol: as §1, §2
In a first experiment, a separation of the blood constituents is made on a double density Polymorphprep® gradient.
Whole blood from healthy volunteers is labeled with 2 mCi of [^99mTc(ArCS3)2(ArCS2)] following the method described above. The blood constituents are then separated by the Polymorphprep® double density gradient into two separate fractions: lymphocytes and polymorphs/erythrocytes. The whole blood, diluted in 2-3 mL RPMI, is initially delicately placed on the Polymorphprep® gradient and then centrifuged (300 g, 20 min, 37° C.). […] Counting is made on each fraction using a MAXM Y07 00 367 counter in order to confirm cell constitution.

| Compound | Cell separation on whole blood (activity %): Polymorphprep |
| --- | --- |
| CCOc1ccc(C(=S)S[S][99Tc]([S]SC(=S)c2ccc(OCC)cc2)[S]C(=S)c2ccc(OCC)cc2)cc1 [Example 14, [^99mTc(4-EtOPhCS3)2(4-EtOPhCS2)]] | 3% |
| COc1cccc(C(=S)S[S][99Tc]([S]SC(=S)c2cccc(OC)c2)[S]C(=S)c2cccc(OC)c2)c1 [Example 15, [^99mTc(3-MeOPhCS3)2(3-MeOPhCS2)]] | 2% |
| COc1cccc(C(=S)S[S][99Tc]([S]SC(=S)c2cccc(OC)c2)[S]C(=S)c2cccc(OC)c2)c1 [Example 16, [^99mTc(3-MeOPhCS3)2(3-MeOPhCS2)]] | 2% |
| Oc1ccc(C(=S)S[S][99Tc]([S]SC(=S)c2ccc(O)cc2)[S]C(=S)c2ccc(O)cc2)cc1 [Example 17, [^99mTc(4-OHPhCS3)2(4-OHPhCS2)]] | 1% |
| Oc1ccc(C(=S)S[S][99Tc]([S]SC(=S)c2ccc(O)cc2)[S]C(=S)c2ccc(O)cc2)cc1 [Example 18, [^99mTc(4-OHPhCS3)2(4-OHPhCS2)]] | 3% |
| Fc1ccc(C(=S)S[S][99Tc]([S]SC(=S)c2ccc(F)cc2)[S]C(=S)c2ccc(F)cc2)cc1 [Example 19, [^99mTc(4-FPhCS3)2 (4-FPhCS2)]] | 4% |
| Fc1ccc(C(=S)S[S][99Tc]([S]SC(=S)c2ccc(F)cc2)[S]C(=S)c2ccc(F)cc2)cc1 [Example 20, [^99mTc(4-FPhCS3)2 (4-FPhCS2)]] | 4% |
| Cc1cc(C)c(C(=S)S[S][99Tc]([S]SC(=S)c2cc(C)c(C)cc2C)[S]C(=S)c2cc(C)c(C)cc2C)cc1C [Example 21, [^99mTc(2,4,5-Me3PhCS3)2(2,4,5-Me3PhCS2)]] | 2% |
| Cc1cc(C)c(C(=S)S[S][99Tc]([S]SC(=S)c2cc(C)c(C)cc2C)[S]C(=S)c2cc(C)c(C)cc2C)cc1C [Example 22, [^99mTc(2,4,5-Me3PhCS3)2(2,4,5-Me3PhCS2)]] | 2% |
| S=C(S[S][99Tc]([S]SC(=S)c1cccc2ccccc12)[S]C(=S)c1cccc2ccccc12)c1cccc2ccccc12 [Example 23, [^99mTc(1-naphCS3)2(1-naphCS2)]] | 5% |

same assay, conditions: fraction: erythrocytes

| Compound | Cell separation on whole blood (activity %): Erythrocytes |
| --- | --- |
| CCOc1ccc(C(=S)S[S][99Tc]([S]SC(=S)c2ccc(OCC)cc2)[S]C(=S)c2ccc(OCC)cc2)cc1 [Example 14, [^99mTc(4-EtOPhCS3)2(4-EtOPhCS2)]] | 22% |
| COc1cccc(C(=S)S[S][99Tc]([S]SC(=S)c2cccc(OC)c2)[S]C(=S)c2cccc(OC)c2)c1 [Example 15, [^99mTc(3-MeOPhCS3)2(3-MeOPhCS2)]] | 25% |
| COc1cccc(C(=S)S[S][99Tc]([S]SC(=S)c2cccc(OC)c2)[S]C(=S)c2cccc(OC)c2)c1 [Example 16, [^99mTc(3-MeOPhCS3)2(3-MeOPhCS2)]] | 16% |
| Oc1ccc(C(=S)S[S][99Tc]([S]SC(=S)c2ccc(O)cc2)[S]C(=S)c2ccc(O)cc2)cc1 [Example 17, [^99mTc(4-OHPhCS3)2(4-OHPhCS2)]] | 12% |
| Oc1ccc(C(=S)S[S][99Tc]([S]SC(=S)c2ccc(O)cc2)[S]C(=S)c2ccc(O)cc2)cc1 [Example 18, [^99mTc(4-OHPhCS3)2(4-OHPhCS2)]] | 7% |
| Fc1ccc(C(=S)S[S][99Tc]([S]SC(=S)c2ccc(F)cc2)[S]C(=S)c2ccc(F)cc2)cc1 [Example 19, [^99mTc(4-FPhCS3)2 (4-FPhCS2)]] | 15% |
| Fc1ccc(C(=S)S[S][99Tc]([S]SC(=S)c2ccc(F)cc2)[S]C(=S)c2ccc(F)cc2)cc1 [Example 20, [^99mTc(4-FPhCS3)2 (4-FPhCS2)]] | 12% |
| Cc1cc(C)c(C(=S)S[S][99Tc]([S]SC(=S)c2cc(C)c(C)cc2C)[S]C(=S)c2cc(C)c(C)cc2C)cc1C [Example 21, [^99mTc(2,4,5-Me3PhCS3)2(2,4,5-Me3PhCS2)]] | 15% |
| Cc1cc(C)c(C(=S)S[S][99Tc]([S]SC(=S)c2cc(C)c(C)cc2C)[S]C(=S)c2cc(C)c(C)cc2C)cc1C [Example 22, [^99mTc(2,4,5-Me3PhCS3)2(2,4,5-Me3PhCS2)]] | 20% |
| S=C(S[S][99Tc]([S]SC(=S)c1cccc2ccccc12)[S]C(=S)c1cccc2ccccc12)c1cccc2ccccc12 [Example 23, [^99mTc(1-naphCS3)2(1-naphCS2)]] | 46% |

same assay, conditions: fraction: leukocytes

| Compound | Cell separation on whole blood (activity %): Leukocytes |
| --- | --- |
| CCOc1ccc(C(=S)S[S][99Tc]([S]SC(=S)c2ccc(OCC)cc2)[S]C(=S)c2ccc(OCC)cc2)cc1 [Example 14, [^99mTc(4-EtOPhCS3)2(4-EtOPhCS2)]] | 75% |
| COc1cccc(C(=S)S[S][99Tc]([S]SC(=S)c2cccc(OC)c2)[S]C(=S)c2cccc(OC)c2)c1 [Example 15, [^99mTc(3-MeOPhCS3)2(3-MeOPhCS2)]] | 73% |
| COc1cccc(C(=S)S[S][99Tc]([S]SC(=S)c2cccc(OC)c2)[S]C(=S)c2cccc(OC)c2)c1 [Example 16, [^99mTc(3-MeOPhCS3)2(3-MeOPhCS2)]] | 79% |
| Oc1ccc(C(=S)S[S][99Tc]([S]SC(=S)c2ccc(O)cc2)[S]C(=S)c2ccc(O)cc2)cc1 [Example 17, [^99mTc(4-OHPhCS3)2(4-OHPhCS2)]] | 85% |
| Oc1ccc(C(=S)S[S][99Tc]([S]SC(=S)c2ccc(O)cc2)[S]C(=S)c2ccc(O)cc2)cc1 [Example 18, [^99mTc(4-OHPhCS3)2(4-OHPhCS2)]] | 89% |
| Fc1ccc(C(=S)S[S][99Tc]([S]SC(=S)c2ccc(F)cc2)[S]C(=S)c2ccc(F)cc2)cc1 [Example 19, [^99mTc(4-FPhCS3)2 (4-FPhCS2)]] | 80% |
| Fc1ccc(C(=S)S[S][99Tc]([S]SC(=S)c2ccc(F)cc2)[S]C(=S)c2ccc(F)cc2)cc1 [Example 20, [^99mTc(4-FPhCS3)2 (4-FPhCS2)]] | 84% |
| Cc1cc(C)c(C(=S)S[S][99Tc]([S]SC(=S)c2cc(C)c(C)cc2C)[S]C(=S)c2cc(C)c(C)cc2C)cc1C [Example 21, [^99mTc(2,4,5-Me3PhCS3)2(2,4,5-Me3PhCS2)]] | 82% |
| Cc1cc(C)c(C(=S)S[S][99Tc]([S]SC(=S)c2cc(C)c(C)cc2C)[S]C(=S)c2cc(C)c(C)cc2C)cc1C [Example 22, [^99mTc(2,4,5-Me3PhCS3)2(2,4,5-Me3PhCS2)]] | 78% |
| S=C(S[S][99Tc]([S]SC(=S)c1cccc2ccccc12)[S]C(=S)c1cccc2ccccc12)c1cccc2ccccc12 [Example 23, [^99mTc(1-naphCS3)2(1-naphCS2)]] | 43% |

same assay, conditions: fraction: medium

| Compound | Cell separation on whole blood (activity %): Medium |
| --- | --- |
| COc1cccc(C(=S)S[S][99Tc]([S]SC(=S)c2cccc(OC)c2)[S]C(=S)c2cccc(OC)c2)c1 [Example 16, [^99mTc(3-MeOPhCS3)2(3-MeOPhCS2)]] | 3% |
| Oc1ccc(C(=S)S[S][99Tc]([S]SC(=S)c2ccc(O)cc2)[S]C(=S)c2ccc(O)cc2)cc1 [Example 17, [^99mTc(4-OHPhCS3)2(4-OHPhCS2)]] | 2% |
| Oc1ccc(C(=S)S[S][99Tc]([S]SC(=S)c2ccc(O)cc2)[S]C(=S)c2ccc(O)cc2)cc1 [Example 18, [^99mTc(4-OHPhCS3)2(4-OHPhCS2)]] | 1% |
| Fc1ccc(C(=S)S[S][99Tc]([S]SC(=S)c2ccc(F)cc2)[S]C(=S)c2ccc(F)cc2)cc1 [Example 19, [^99mTc(4-FPhCS3)2 (4-FPhCS2)]] | 1% |
| Cc1cc(C)c(C(=S)S[S][99Tc]([S]SC(=S)c2cc(C)c(C)cc2C)[S]C(=S)c2cc(C)c(C)cc2C)cc1C [Example 21, [^99mTc(2,4,5-Me3PhCS3)2(2,4,5-Me3PhCS2)]] | 1% |
| S=C(S[S][99Tc]([S]SC(=S)c1cccc2ccccc12)[S]C(=S)c1cccc2ccccc12)c1cccc2ccccc12 [Example 23, [^99mTc(1-naphCS3)2(1-naphCS2)]] | 6% |
